Source: patent US10245249B2, “Pharmaceutical compositions comprising nitroxyl donors” (Cardioxyl Pharmaceuticals, Inc., priority 2013, dated 2019)

How the values were obtained:
[1] = system: heart failure canines; assay: Hemodynamic efficacy in heart failure canines (tachycardia-pacing model); format: in vivo, beagle dogs; settings: for hemodynamic activity compared with CXL-1020: both normal and failing canine models, FIG. 1; for ESP / ESPVR / HR / PRSW / SW / Tau / EDV: heart failure canines, i.v. infusion; for ESP / ESPVR / HR / PRSW / SW / Tau: Dose Rate (μmol/kg/min): CXL-1020 100, (1) 75, (2) 100, (83) 65, (84) 77; for EDV: Dose Rate : CXL-1020 100, (1) 75, (2) 100, (83) 65, (84) 77
Experimental: (§1) The cardiovascular effects of nitroxyl donors were examined by means of pressure-volume (PV) curve (loops) analysis in conscious, sling-restrained beagle dogs. Animals were allowed free access to drinking water and a commercial canine diet under standard laboratory conditions. Fluorescent lighting was provided via an automatic timer for approximately 12 hours per day. On occasion, the dark cycle was interrupted intermittently due to study-related activities. Temperature and humidity were monitored and recorded daily and maintained to the maximum extent possible between 64° F. and 84° F. and 30% to 70%, respectively. The dogs were acclimated for a period of at least 1 week prior to surgery. Following surgery and recovery the animals were acclimated to sling restraint for a period up to 4.5 hours. Animals were fasted overnight prior to surgery. An indwelling venous catheter was placed in peripheral vein (e.g., cephalic) for administration of anesthetic. General anesthesia was induced intravenously (bolus) with buprenorphine (about 0.015 mg/kg) followed by an intravenous bolus of propofol (about 6 mg/kg). Additionally, a prophylactic antibiotic (cefazolin 20 to 50 mg/kg via i.v.) was given upon induction. […] Anesthesia was maintained with inhaled isoflurane (1% to 3%). Once a stable (surgical) plane of anesthesia had been established, a left-thoracotomy was performed (under strict aseptic conditions) and each animal was chronically instrumented with sono-micrometry crystals providing left-ventricular (LV) dimensions/volume. Additionally, a fluid-filled catheter and a solid-state monometer were placed in the left ventricle for pressure monitoring. A fluid-filled catheters was placed in the right ventricle (RV) and the aorta (Ao) for pressure monitoring/test article administration. […] The catheters/wires were aseptically tunneled and externalized between the scapulae. Over the course of the study, fluid-filled catheters were regularly (at least once weekly) flushed with a locking-solution in order to prevent both clotting and bacterial growth (2-3 mL of Taurolidine-Citrate solution, TCS-04; Access Technologies). Following the cardiovascular instrumentation, the right jugular vein was carefully exposed and cannulated with a bipolar pacing lead/catheter ([…]® Novus; Medtronic). Under fluoroscopic guidance, this pacing lead was advanced normograde into the right ventricle and actively affixed (screwed in) to the apical endocardium. The proximal end of the lead was secured to the pacing device (Kappa 900; Medtronic). Subsequently, the pacemaker was placed/secured in a subcutaneous pocket in the neck. Considering that the heart was exposed via a thoracotomy, a bipolar pacing wire was secured in the right ventricular mid-myocardium. This pacing lead was tunneled/externalized between the scapulae, and used in conjunction with an external impulse generator/pacemaker. The implanted endocardial pacemaker was used as a back-up to the external/epicardial pacemaker. Prior to closure of the chest from the thoracotomy, a chest tube was placed for drainage of any fluid and/or gas that accumulated from the surgical procedure. The tube was aspirated twice daily until the amount of fluid removed was less than 35 mL per aspiration in an approximately 24 hour period. The chest tube was then removed. All animals were administered a prophylactic antibiotic (cefazolin 20 to 50 mg/kg via i.v.) and pain medication (meloxicam at about 0.2 mg/kg via i.v.). If necessary, an additional analgesic was also administered which included a fentanyl patch (25 to 50 mcg/hour). All surgical incisions were closed in layers; the underlying musculature was closed with absorbable sutures and the skin was closed with staples. Following surgery, the animals were allowed to recover for at least 14 days. Cephalexin (20 to 50 mg/kg) was administered orally BID for at least 7 days and meloxicam (0.1 mg/kg) was administered SID orally or subcutaneously for at least 2 days after surgery. […]

[2] = system: normal canines; assay: Hemodynamic efficacy in normal canines (pressure-volume loop analysis); format: in vivo, beagle dogs; settings: i.v. infusion, Dose Rate (μmol/kg/min): CXL-1020 100, (1) 50, (2) 100, (83) 65, (84) 77
Experimental: as §1

Cn1ccc(S(=O)(=O)NO)n1 [Compound 85, N-Hydroxy-1-methyl-1H-pyrazole-3-sulfonamide]
hemodynamic activity compared with CXL-1020 [1]: comparable hemodynamic activity to CXL-1020

CS(=O)(=O)c1ccccc1S(=O)(=O)NO [CXL-1020, N-hydroxy-2-methanesulfonylbenzene-1-sulfonamide, reference compound]
EDV [2]: −20.51 ± 7.63 % Change from Baseline
ESP [2]: −17.79 ± 3.09 % Change from Baseline
ESPVR [2]: 28.25 ± 8.69 % Change from Baseline
HR [2]: 6.71 ± 4.72 % Change from Baseline
PRSW [2]: 12.60 ± 2.96 % Change from Baseline
SW [2]: −13.96 ± 5.51 % Change from Baseline
Tau [2]: −6.58 ± 4.53 % Change from Baseline
ESP [1]: −14.78 ± 3.24 % Change from Baseline
ESPVR [1]: 45.42 ± 16.48 % Change from Baseline
HR [1]: −0.23 ± 2.25 % Change from Baseline
PRSW [1]: 21.97 ± 3.79 % Change from Baseline
SW [1]: −12.01 ± 4.24 % Change from Baseline
Tau [1]: −17.27 ± 1.39 % Change from Baseline
EDV [1]: −12.03 ± 3.72 % Change from Baseline

O=S(=O)(NO)c1ccco1 [Compound 83, N-Hydroxyfuran-2-sulfonamide]
EDV [2]: −16.88 ± 1.69 % Change from Baseline
ESP [2]: −21.99 ± 3.32 % Change from Baseline
ESPVR [2]: 29.33 ± 8.36 % Change from Baseline
HR [2]: 2.89 ± 2.94 % Change from Baseline
PRSW [2]: 19.79 ± 3.39 % Change from Baseline
SW [2]: −19.18 ± 6.70 % Change from Baseline
Tau [2]: −10.10 ± 1.56 % Change from Baseline
hemodynamic activity compared with CXL-1020 [1]: comparable hemodynamic activity to CXL-1020
ESP [1]: −18.52 ± 2.59 % Change from Baseline
ESPVR [1]: 38.06 ± 8.79 % Change from Baseline
HR [1]: 0.05 ± 1.25 % Change from Baseline
PRSW [1]: 14.90 ± 2.27 % Change from Baseline
SW [1]: −9.63 ± 1.70 % Change from Baseline
Tau [1]: −18.32 ± 3.06 % Change from Baseline
EDV [1]: −4.91 ± 0.57 % Change from Baseline

Cc1ccc(S(=O)(=O)NO)s1 [Compound 84, N-Hydroxy-5-methylthiophene-2-sulfonamide]
EDV [2]: −10.99 ± 2.33 % Change from Baseline
ESP [2]: −16.85 ± 2.33 % Change from Baseline
ESPVR [2]: 50.71 ± 8.14 % Change from Baseline
HR [2]: 4.31 ± 2.98 % Change from Baseline
PRSW [2]: 17.70 ± 2.35 % Change from Baseline
SW [2]: −13.98 ± 1.14 % Change from Baseline
Tau [2]: −9.60 ± 6.06 % Change from Baseline
hemodynamic activity compared with CXL-1020 [1]: comparable hemodynamic activity to CXL-1020
ESP [1]: −13.72 ± 2.83 % Change from Baseline
ESPVR [1]: 51.01 ± 5.85 % Change from Baseline
HR [1]: 3.72 ± 2.45 % Change from Baseline
PRSW [1]: 25.03 ± 2.52 % Change from Baseline
SW [1]: −5.96 ± 1.58 % Change from Baseline
Tau [1]: 15.61 ± 1.58 % Change from Baseline
EDV [1]: −13.43 ± 4.63 % Change from Baseline

Cc1ccc(S(=O)(=O)NO)o1 [Compound 1, N-Hydroxy-5-methylfuran-2-sulfonamide]
EDV [2]: −6 ± 2 % Change from Baseline
ESP [2]: −18 ± 2 % Change from Baseline
ESPVR [2]: 19 ± 1 % Change from Baseline
HR [2]: −4 ± 2 % Change from Baseline
PRSW [2]: 12 ± 1 % Change from Baseline
SW [2]: −11 ± 4 % Change from Baseline
Tau [2]: −6 ± 1 % Change from Baseline
hemodynamic activity compared with CXL-1020 [1]: comparable hemodynamic activity to CXL-1020
ESP [1]: −17 ± 1 % Change from Baseline
ESPVR [1]: 29 ± 1 % Change from Baseline
HR [1]: −6 ± 2 % Change from Baseline
PRSW [1]: 22 ± 1 % Change from Baseline
SW [1]: 10 ± 5 % Change from Baseline
Tau [1]: −16 ± 4 % Change from Baseline
EDV [1]: −9 ± 2 % Change from Baseline

CS(=O)(=O)c1cccc(S(=O)(=O)NO)c1 [Compound 2, N-Hydroxy-3-methanesulfonylbenzene-1-sulfonamide]
EDV [2]: −17.41 ± 1.58 % Change from Baseline
ESP [2]: −15.22 ± 2.39 % Change from Baseline
ESPVR [2]: 25.87 ± 5.04 % Change from Baseline
HR [2]: −6.17 ± 5.58 % Change from Baseline
PRSW [2]: 12.88 ± 1.12 % Change from Baseline
SW [2]: −17.56 ± 2.66 % Change from Baseline
Tau [2]: −6.40 ± 7.11 % Change from Baseline
hemodynamic activity compared with CXL-1020 [1]: comparable hemodynamic activity to CXL-1020
ESP [1]: −13.83 ± 3.30 % Change from Baseline
ESPVR [1]: 22.84 ± 5.69 % Change from Baseline
HR [1]: −1.36 ± 2.06 % Change from Baseline
PRSW [1]: 17.91 ± 1.47 % Change from Baseline
SW [1]: −9.41 ± 2.84 % Change from Baseline
Tau [1]: −12.51 ± 2.72 % Change from Baseline
EDV [1]: −3.26 ± 1.05 % Change from Baseline
